IC50, EC50 and AC50 data for six compounds are collected here from ChEMBL document CHEMBL1201862, “PubChem BioAssay data set” (2004).

The target of one assay is Bcl-2-like protein 1 (Homo sapiens, UniProt Q07817). The assay can be described thus: BCL-XL inhibitors, dose response, selectivity assay for MCL1 inhibitor project, biochemical, fluorescence polarization, 1536-well (AID 2218). A general note: In fluorescence polarisation assays a small probe gives low polarisation when free and higher when bound to something large.
In assay [1] the target is T1, Low molecular weight phosphotyrosine protein phosphatase (Homo sapiens, UniProt P24666).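 Further: Dose-response confirmation assay measuring inhibition of LMPTP enzyme activity by fluorescence intensity read-out.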
T1 sequence (P24666 whole entry): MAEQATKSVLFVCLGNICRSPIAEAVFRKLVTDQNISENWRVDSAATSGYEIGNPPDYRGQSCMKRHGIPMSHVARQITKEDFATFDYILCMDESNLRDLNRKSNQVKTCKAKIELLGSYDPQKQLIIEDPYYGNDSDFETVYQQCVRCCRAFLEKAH
It counts as functional. The note with it: read-out: IC50_Mean.

Assay [2] deals with T2, RNA-binding protein pos-1 (Caenorhabditis elegans, UniProt G5EF15).
T2 sequence (G5EF15 whole entry): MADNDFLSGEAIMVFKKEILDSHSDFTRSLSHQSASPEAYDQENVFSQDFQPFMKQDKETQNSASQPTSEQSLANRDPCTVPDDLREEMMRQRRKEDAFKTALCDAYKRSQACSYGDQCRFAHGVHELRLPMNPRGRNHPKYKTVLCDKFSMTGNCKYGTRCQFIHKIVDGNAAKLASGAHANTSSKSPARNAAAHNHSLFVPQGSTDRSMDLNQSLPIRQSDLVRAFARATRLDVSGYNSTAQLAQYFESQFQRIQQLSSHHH
The assay can be described thus: inhibitors of POS-1/mex-3 RNA binding, dose response, biochemical, fluorescence polarization (AID 1964).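 Further: purified POS-1 fused to maltose binding protein made in E. coli; potency of compounds blocking POS-1 binding to fluorescent RNA.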

Assay [3] addresses T3, Zinc finger protein mex-5 (Caenorhabditis elegans, UniProt Q9XUB2).
T3 sequence (Q9XUB2 whole entry): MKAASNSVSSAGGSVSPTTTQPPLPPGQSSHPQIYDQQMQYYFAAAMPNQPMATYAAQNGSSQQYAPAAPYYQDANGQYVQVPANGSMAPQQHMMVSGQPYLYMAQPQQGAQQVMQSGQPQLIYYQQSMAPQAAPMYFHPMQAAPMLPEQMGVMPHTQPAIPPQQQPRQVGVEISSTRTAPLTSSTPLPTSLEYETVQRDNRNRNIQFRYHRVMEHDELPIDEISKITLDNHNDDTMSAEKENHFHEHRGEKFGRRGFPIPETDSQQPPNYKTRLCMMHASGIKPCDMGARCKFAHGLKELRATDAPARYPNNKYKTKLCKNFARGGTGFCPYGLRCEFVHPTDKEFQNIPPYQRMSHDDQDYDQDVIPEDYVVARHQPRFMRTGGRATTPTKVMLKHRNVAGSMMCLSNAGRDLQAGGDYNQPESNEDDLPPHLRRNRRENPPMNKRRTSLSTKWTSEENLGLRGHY
The experiment in a line: MEX-5/TCR-2 RNA interaction inhibitors, dose response, biochemical, C. elegans, fluorescence polarization (AID 1960).

For the next assay, the target named is Large T antigen (Simian virus 40, UniProt P03070). It counts as functional, Betapolyomavirus macacae.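 Further: Confirmatory-stage PubChem screen for compounds that inhibit SV40 T antigen.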
Assay [4] addresses T4, Induced myeloid leukemia cell differentiation protein Mcl-1 (Homo sapiens, UniProt Q07820). The experiment in a line: MCL1-BIM BH3 interaction inhibitors, dose response, biochemical, fluorescence polarization, BIM-BH3 peptide, 1536-well (AID 2217).
Assay [5] has as its target T5, Tyrosine-protein phosphatase non-receptor type 7 (Homo sapiens, UniProt P35236).
T5 sequence (P35236 whole entry): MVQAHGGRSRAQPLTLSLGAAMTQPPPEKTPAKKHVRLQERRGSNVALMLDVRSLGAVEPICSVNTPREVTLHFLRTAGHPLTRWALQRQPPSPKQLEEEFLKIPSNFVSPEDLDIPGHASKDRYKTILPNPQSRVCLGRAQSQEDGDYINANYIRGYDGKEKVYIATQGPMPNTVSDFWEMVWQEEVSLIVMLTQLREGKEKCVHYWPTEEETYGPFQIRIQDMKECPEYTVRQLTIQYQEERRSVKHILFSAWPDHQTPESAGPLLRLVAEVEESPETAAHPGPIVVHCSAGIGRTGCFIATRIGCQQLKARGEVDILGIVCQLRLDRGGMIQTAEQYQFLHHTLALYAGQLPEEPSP
The experiment in a line: inhibitors of human HePTP phosphatase, […], biochemical, absorbance, leukemia target (AID 521). It counts as functional.

For assay [6], the target named is T6, Dual specificity protein phosphatase 6 (Rattus norvegicus, UniProt Q64346).
T6 sequence (Q64346 whole entry): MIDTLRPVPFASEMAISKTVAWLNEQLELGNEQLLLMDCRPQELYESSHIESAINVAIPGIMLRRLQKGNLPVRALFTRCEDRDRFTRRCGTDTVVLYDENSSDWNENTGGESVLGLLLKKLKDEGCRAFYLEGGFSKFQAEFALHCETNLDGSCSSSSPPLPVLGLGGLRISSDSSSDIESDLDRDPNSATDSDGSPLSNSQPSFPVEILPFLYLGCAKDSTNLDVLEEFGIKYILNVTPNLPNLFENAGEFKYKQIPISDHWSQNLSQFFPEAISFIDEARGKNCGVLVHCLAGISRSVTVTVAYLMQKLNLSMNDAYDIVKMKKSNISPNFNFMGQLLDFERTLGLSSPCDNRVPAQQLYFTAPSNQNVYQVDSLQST
The assay can be described thus: MKP-3 phosphatase inhibitors, primary screen, biochemical, rat enzyme, in vitro (AID 425).

A further assay addresses Major prion protein (Homo sapiens, UniProt P04156). Type of assay: functional, cell-based.
The next assay deals with Genome polyprotein (dengue virus type 2, UniProt P29990). The experiment in a line: Dengue-2 NS5 methyltransferase inhibitors, primary screen, biochemical, confirmation dose response (AID 588689). Type of assay: functional.
The target of assay [7] is T4, Induced myeloid leukemia cell differentiation protein Mcl-1. It counts as functional.
The next assay addresses T7, Bcl-2-like protein 10 (Homo sapiens, UniProt Q9HD36).
T7 sequence (Q9HD36 whole entry): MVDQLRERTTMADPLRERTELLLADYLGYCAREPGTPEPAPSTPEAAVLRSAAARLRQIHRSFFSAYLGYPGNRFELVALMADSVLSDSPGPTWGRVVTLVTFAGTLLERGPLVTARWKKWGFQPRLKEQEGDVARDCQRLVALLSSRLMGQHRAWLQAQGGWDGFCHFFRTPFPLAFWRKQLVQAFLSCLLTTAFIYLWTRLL
The assay can be described thus: displacers of TR3 peptide from Bcl-B, primary screen, selectivity assay for Bfl-1 inhibitor project, biochemical, fluorescence polarization, FITC-TR3 peptide (AID 748).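 Further: fluorescence polarization from a fluorescein-labelled TR3 peptide binding purified Bcl-B.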

A further assay has as its target Estrogen receptor beta (Homo sapiens, UniProt Q92731). The experiment in a line: ERβ–SRC-3 coactivator interaction inhibitors, confirmation, orthogonal assay, biochemical, ELISA, streptavidin-HRP readout (AID 1060). In general terms: An ELISA detects its analyte on a solid surface through an enzyme-linked reagent.
A further assay addresses T8, Aminopeptidase N (Plasmodium falciparum FcB1/Columbia, UniProt O96935).
T8 sequence (O96935 whole entry): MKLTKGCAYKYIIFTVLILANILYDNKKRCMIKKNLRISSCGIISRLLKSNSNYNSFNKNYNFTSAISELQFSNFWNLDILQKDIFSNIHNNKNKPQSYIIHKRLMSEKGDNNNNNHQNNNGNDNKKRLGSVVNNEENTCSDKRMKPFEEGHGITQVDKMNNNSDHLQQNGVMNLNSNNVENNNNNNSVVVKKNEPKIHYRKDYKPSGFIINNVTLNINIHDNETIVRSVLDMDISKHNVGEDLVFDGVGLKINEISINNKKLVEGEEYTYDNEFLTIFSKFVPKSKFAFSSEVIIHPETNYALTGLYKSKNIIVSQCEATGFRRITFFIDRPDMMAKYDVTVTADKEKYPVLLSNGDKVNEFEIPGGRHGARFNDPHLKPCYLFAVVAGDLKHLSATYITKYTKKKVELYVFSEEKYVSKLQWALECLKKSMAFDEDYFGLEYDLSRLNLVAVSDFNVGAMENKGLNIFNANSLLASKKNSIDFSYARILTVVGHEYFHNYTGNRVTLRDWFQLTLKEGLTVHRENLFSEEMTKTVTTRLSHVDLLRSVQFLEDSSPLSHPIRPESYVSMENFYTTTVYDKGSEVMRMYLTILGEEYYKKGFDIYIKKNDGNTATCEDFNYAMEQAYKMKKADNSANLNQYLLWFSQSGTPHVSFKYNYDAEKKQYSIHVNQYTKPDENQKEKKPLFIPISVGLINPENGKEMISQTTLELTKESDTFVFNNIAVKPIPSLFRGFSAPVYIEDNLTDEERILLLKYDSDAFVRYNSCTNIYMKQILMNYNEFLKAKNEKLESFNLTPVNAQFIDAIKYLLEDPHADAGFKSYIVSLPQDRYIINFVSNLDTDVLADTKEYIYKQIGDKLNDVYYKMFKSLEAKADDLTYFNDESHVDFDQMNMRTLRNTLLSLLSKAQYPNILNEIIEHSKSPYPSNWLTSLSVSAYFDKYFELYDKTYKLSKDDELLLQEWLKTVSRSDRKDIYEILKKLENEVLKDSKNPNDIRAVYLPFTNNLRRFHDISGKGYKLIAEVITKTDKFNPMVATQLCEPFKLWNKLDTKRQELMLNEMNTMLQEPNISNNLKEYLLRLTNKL
The experiment in a line: P. falciparum M1AAP inhibitors, biochemical, fluorogenic H-Leu-NHMec substrate, 1536-well (AID 1445). Details: species or system Plasmodium falciparum 3D7, 3D7.

For another assay, the target named is T9, Protein Tat (Human immunodeficiency virus type 1 group M subtype B (isolate HXB2)(HIV-1), UniProt P04608).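 Further: tat binding to TAR RNA read out by fluorescence polarization.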
T9 sequence (P04608 whole entry): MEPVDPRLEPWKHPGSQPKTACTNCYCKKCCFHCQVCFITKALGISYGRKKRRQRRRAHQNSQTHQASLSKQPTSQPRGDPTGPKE
Type of assay: functional.

Assay [8] in a line: Luminescence Cell-Based Dose Response to Identify Activators of 5'UTR Stem-Loop Driven Prion Protein mRNA Translation in H4-C Neuroglioblastoma Cells. [Related pubchem assays: 1829 (Project Summary), 1814 (Primary HTS)]. It counts as functional.
A short description of assay [9]: Luminescence Cell-Based Dose Response to Identify Activators of Luciferase Translation or Activity in H4-C Neuroglioblastoma Cells. [Related pubchem assays: 1829 (Project Summary), 1814 (Primary HTS)]. It counts as functional.
Assay [10] can be described thus: Luminescence Cell-Based Dose Response HTS to Identify Activators of Luciferase Translation or Activity in H4 […] Cells. [Related pubchem assays: 1829 (Project Summary), 1814 (Primary HTS)]. Type of assay: functional.
The nature of assay [11]: Luminescence Cell-Based Dose Confirmation HTS to Identify Activators of 5'UTR Stem-Loop Driven Alpha-Synuclein mRNA Translation in H4 Neuroglioblastoma Cells. [Related pubchem assays: 1829 (Project Summary), 1814 (Primary HTS)]. Type of assay: functional.
A short description of assay [12]: Luminescence Cell-Based Dose Confirmation to Identify Activators of 5'UTR Stem-Loop Driven Alpha-Synuclein mRNA Translation in H4 Neuroglioblastoma Cells. [Related pubchem assays: 1829 (Project Summary), 1814 (Primary HTS)]. Type of assay: functional.
For the next assay, the system named is H4. The assay can be described thus: Luminescence Cell-Based Dose Response HTS to Identify Activators of 5'UTR Stem-Loop Driven Prion Protein mRNA Translation in H4 Neuroglioblastoma Cells. [Related pubchem assays: 1829 (Project Summary), 1814 (Primary HTS)]. Type of assay: functional. The note with it: Homo sapiens.
In a further assay the target is Cytochrome P450 2C19 (Homo sapiens, UniProt P33261). The assay can be described thus: Cytochrome panel assay with activity outcomes. Panel member name: p450-cyp2c19 Compounds with AC50 equal or less than 10 uM are considered active. The settings on record: read-out: AC50. It counts as functional.
The target in assay [13] is T6, Dual specificity protein phosphatase 6. Type of assay: functional.
Assay [14] has as its target T5, Tyrosine-protein phosphatase non-receptor type 7. It counts as functional.
In assay [15] the target is T6, Dual specificity protein phosphatase 6.
Assay [16] has as its target Glyceraldehyde-3-phosphate dehydrogenase (Homo sapiens, UniProt P04406).

Activity calls are given as the source filed them. A value given as a limit tells only on which side of the number the result lay.

In general, EC50 refers to the concentration giving half of the maximal effect. In the case of `Cc1ccc(-c2cc(-c3ccco3)c(C#N)c(=O)[nH]2)cc1`, the IC50 at Bcl-2-like protein 1 was > 109 µM (not active); in assay [1], 49.2 µM (inactive); on Large T antigen, 64.5 µM (active); in assay [4], > 12.1 µM (not active). In addition, the results for the EC50 in assay [2] and in assay [3] were 26.1 µM (active) and 8.36 µM (inconclusive), respectively.
Consider `NC(=O)CSc1nnc2n(-c3ccccc3)c(=O)c3c4c(sc3n12)CCCCC4`, for which the IC50 in assay [5] is 2.54 µM (active); in assay [6], > 10 µM (not active); in the assay “cells”, 130 µM (inactive); at Major prion protein, 4.66 µM (active).
In the case of `O=C(CSc1nnc(-c2ccco2)c(-c2ccco2)n1)Nc1ccccc1`, the IC50 at Genome polyprotein is > 100 µM (active); in assay [7], 3.11 µM (active); at Bcl-2-like protein 10 it was 15.3 µM (active); against Estrogen receptor beta it was < 23 nM (not active); on Aminopeptidase N, 97.7 µM (active); on Protein Tat it was 5.16 µM (inconclusive).
Consider `Cc1ccc(-c2cc(NC(=O)c3ccccc3)on2)cc1`, for which the EC50 in assay [8] is 632 nM (active); in [9], 334 nM (active); in assay [10] it was 137 nM (active); in assay [11], < 100 nM (active); in assay [12], 463 nM (active); in the assay with H4, 9.75 µM (active).
What is called AC50 is the concentration giving half of the maximal activity seen. On to `Cc1ccc(C)n1C(Cc1ccccc1)C(=O)O` (centres undefined), for which the AC50 on Cytochrome P450 2C19 was 22.4 µM (inconclusive). For the same compound, the IC50 in [6] is > 10 µM (not active); in assay [13], > 100 µM (inactive); in assay [14], 28 µM (active); in assay [15], > 100 µM (inactive); at Bcl-2-like protein 10, < 0.195 µM (inactive); in [16], > 100 µM (not active).
In the case of `Clc1ccccc1/C=N/Nc1cc(N2CCOCC2)ncn1`, the EC50 in [8] was 1050 nM (active); in [9], 394 nM (active); in assay [11], < 100 nM (active); in assay [12], 564 nM (active); with H4, 9.34 µM (active).
